Here are results for 16 compounds from patent publication US20160046618A1, “Cyclopropyl Fused Thiazin-2-Amine Compounds as Beta-Secretase Inhibitors and Methods of Use” (AMGEN INC., priority 2014, published 2016).

For one test, the target named is Recombinant Cat D (Homo sapiens (Human), UniProt P07339). As to the kind of experiment: In vitro enzymatic Cathepsin D (Cat D) FRET assay. The class given is biochemical. The settings on record: read-out: IC50 IP (μM) CatD. Summed up:
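Cleavage of a 20 nM fluorophore/quencher peptide by CHO-expressed recombinant Cat D proceeded for one hour at pH 3.5 (0.05 M citrate, 5 mM CHAPS, 10% DMSO final). Tris addition neutralized the pH to end the reaction. Fluorescence was then measured (ex 500 nm/em 580 nm).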

The target in a further test is human recombinant BACE2 (Homo sapiens (Human), UniProt Q9Y5Z0). As to the kind of experiment: In vitro enzymatic BACE2 FRET assay. The class given is biochemical. Conditions: read-out: IC50 IP (μM) BACE2 enzyme. Summed up: (§1)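 Fluorescence from cleavage of a quenched peptide spanning the BACE site (50 nM) was read at 488 nm excitation, 590 nm emission. Purified enzyme (Ni-NTA) and compound reacted for one hour before a Tris stop shifted pH to neutral.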

Test [1] concerns Aβ40 in conditioned medium of cells stably expressing Amyloid Precursor Protein (APP). As to the kind of experiment: In vitro BACE-1 cell-based assay (Aβ40 sandwich ELISA). The settings on record: read-out: IC50 IP (μM) BACE1 cell. Summed up:
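Aβ40 in supernatants measured by time-resolved fluorescence sandwich ELISA, with pAb40 as capture and biotin-6E10 as detector antibody, each incubated at 4 °C.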

For a further test, the target named is human recombinant BACE1 (Homo sapiens (Human), UniProt P56817). As to the kind of experiment: In vitro enzymatic BACE1 FRET assay. The settings on record: read-out: IC50 IP (μM) BACE1 enzyme. Format: biochemical. Summed up: as §1

Bounds are passed on as bounds.

Chain of Recombinant Cat D (P07339 65-412): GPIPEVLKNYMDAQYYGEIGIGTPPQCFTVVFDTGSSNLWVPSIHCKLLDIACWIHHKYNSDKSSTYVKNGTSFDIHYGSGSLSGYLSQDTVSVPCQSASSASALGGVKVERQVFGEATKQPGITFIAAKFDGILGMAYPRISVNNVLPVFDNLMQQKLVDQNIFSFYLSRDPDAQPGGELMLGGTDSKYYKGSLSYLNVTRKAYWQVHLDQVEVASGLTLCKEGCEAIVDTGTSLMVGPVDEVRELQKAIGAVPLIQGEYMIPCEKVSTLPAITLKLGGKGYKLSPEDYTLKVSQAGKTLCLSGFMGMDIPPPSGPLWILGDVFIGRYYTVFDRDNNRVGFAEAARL
Chain of human recombinant BACE1 (P56817 46-501): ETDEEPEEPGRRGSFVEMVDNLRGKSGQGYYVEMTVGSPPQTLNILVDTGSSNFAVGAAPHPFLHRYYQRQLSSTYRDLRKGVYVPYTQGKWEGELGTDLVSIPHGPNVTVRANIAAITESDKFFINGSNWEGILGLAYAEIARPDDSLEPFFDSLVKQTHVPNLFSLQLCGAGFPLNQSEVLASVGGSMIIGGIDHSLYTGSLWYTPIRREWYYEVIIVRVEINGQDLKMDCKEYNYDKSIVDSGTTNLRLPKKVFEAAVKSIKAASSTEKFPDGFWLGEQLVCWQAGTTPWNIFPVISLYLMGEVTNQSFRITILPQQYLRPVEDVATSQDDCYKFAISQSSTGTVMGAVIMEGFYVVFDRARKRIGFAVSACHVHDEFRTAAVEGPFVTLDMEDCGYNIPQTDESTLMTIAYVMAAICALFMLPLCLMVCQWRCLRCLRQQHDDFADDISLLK
Chain of human recombinant BACE2 (Q9Y5Z0 63-518): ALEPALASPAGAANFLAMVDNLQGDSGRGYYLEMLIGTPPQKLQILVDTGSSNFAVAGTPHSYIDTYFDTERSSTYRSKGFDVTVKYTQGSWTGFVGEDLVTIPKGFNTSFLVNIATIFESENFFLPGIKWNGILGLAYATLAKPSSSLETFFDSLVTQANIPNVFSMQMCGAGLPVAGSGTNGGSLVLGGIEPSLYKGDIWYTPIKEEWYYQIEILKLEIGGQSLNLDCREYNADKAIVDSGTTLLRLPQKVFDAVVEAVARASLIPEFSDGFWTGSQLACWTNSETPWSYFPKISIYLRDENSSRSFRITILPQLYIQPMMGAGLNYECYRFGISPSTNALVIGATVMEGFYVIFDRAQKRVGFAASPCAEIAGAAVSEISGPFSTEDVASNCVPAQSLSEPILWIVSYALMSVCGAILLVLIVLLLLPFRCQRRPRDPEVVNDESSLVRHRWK

The term IC50 denotes the concentration that gives 50% inhibition. As for `C[C@]1(c2cc(Nc3nccc4cc(C#N)cnc34)cnc2F)N=C(N)S[C@@]2(C(F)F)C[C@@H]12` [Example 657, 8-((5-((1S,5S,6S)-3-amino-1-(difluoromethyl)-5-methyl-2-thia-4-azabicyclo[4.1.0]hept-3-en-5-yl)-6-fluoro-3-pyridinyl)amino)-1,7-naphthyridine-3-carbonitrile], the half-inhibitory concentration (IC50) amounted to 306 µM at Recombinant Cat D, 0.00303 µM on human recombinant BACE2, 0.00533 µM in test [1] and 0.00369 µM on human recombinant BACE1.

Take `C[C@]1(c2cc(Nc3ncnc4cc(C#N)cnc34)cnc2F)N=C(N)S[C@@]2(C(F)F)C[C@@H]12` [Example 658, 4-((5-((1S,5S,6S)-3-amino-1-(difluoromethyl)-5-methyl-2-thia-4-azabicyclo[4.1.0]hept-3-en-5-yl)-6-fluoro-3-pyridinyl)amino)pyrido[3,2-d]pyrimidine-7-carbonitrile]: the IC50 was 705 µM at Recombinant Cat D, 0.0293 µM at human recombinant BACE2, 0.0136 µM in test [1] and 0.0107 µM on human recombinant BACE1.

Consider `C#CCOc1cnc2c(Nc3cnc(F)c([C@@]4(C)N=C(N)S[C@@]5([C@H](O)C(F)(F)F)C[C@H]54)c3)nccc2n1` [Example 659, (1R)-1-((1S,5S,6S)-3-amino-5-(2-fluoro-5-((2-(2-propyn-1-yloxy)pyrido[3,4-b]pyrazin-5-yl)amino)-3-pyridinyl)-5-methyl-2-thia-4-azabicyclo[4.1.0]hept-3-en-1-yl)-2,2,2-trifluoroethanol], for which the IC50 worked out at 462 µM on Recombinant Cat D, 0.00425 µM on human recombinant BACE2, 0.0013 µM in test [1] and 0.000774 µM on human recombinant BACE1.

Take `C#CCOc1cnc2c(Nc3cnc(F)c([C@@]4(C)N=C(N)S[C@]5(CO)[C@H]4C5(F)F)c3)nccc2n1` [Example 661, ((1S,5S,6R)-3-amino-7,7-difluoro-5-(2-fluoro-5-((2-(2-propyn-1-yloxy)pyrido[3,4-b]pyrazin-5-yl)amino)-3-pyridinyl)-5-methyl-2-thia-4-azabicyclo[4.1.0]hept-3-en-1-yl)methanol]: the IC50 was 795 µM on Recombinant Cat D, 0.00392 µM at human recombinant BACE2, 0.00244 µM in test [1] and 0.000765 µM at human recombinant BACE1.

In the case of `C[C@]1(c2cc(Nc3nccc4nc(OCc5ncco5)cnc34)cnc2F)N=C(N)S[C@]2(CO)[C@H]1C2(F)F` [Example 663, ((1S,5S,6R)-3-amino-7,7-difluoro-5-(2-fluoro-5-((2-(1,3-oxazol-2-ylmethoxy)pyrido[3,4-b]pyrazin-5-yl)amino)-3-pyridinyl)-5-methyl-2-thia-4-azabicyclo[4.1.0]hept-3-en-1-yl)methanol], the IC50 on Recombinant Cat D worked out at 601 µM; at human recombinant BACE2, 0.0174 µM; in test [1] it was 0.00338 µM; at human recombinant BACE1, 0.00048 µM.

With `C[C@]1(c2cc(Nc3ncnc4cc(OCc5ncco5)cnc34)cnc2F)N=C(N)S[C@]2(CO)[C@H]1C2(F)F` [Example 664, ((1S,5S,6R)-3-amino-7,7-difluoro-5-(2-fluoro-5-((7-(1,3-oxazol-2-ylmethoxy)pyrido[3,2-d]pyrimidin-4-yl)amino)-3-pyridinyl)-5-methyl-2-thia-4-azabicyclo[4.1.0]hept-3-en-1-yl)methanol], the IC50 at Recombinant Cat D is > 400 µM; at human recombinant BACE2 it was 0.046 µM; in test [1] it was 0.0143 µM; at human recombinant BACE1, 0.000274 µM.

With `C#CCOc1cnc2c(Nc3cnc(F)c([C@@]4(C)N=C(N)S[C@@]5([C@H](O)C(F)(F)F)C[C@H]54)c3)ncnc2c1` [Example 665, (1R)-1-((1S,5S,6S)-3-amino-5-(2-fluoro-5-((7-(2-propyn-1-yloxy)pyrido[3,2-d]pyrimidin-4-yl)amino)-3-pyridinyl)-5-methyl-2-thia-4-azabicyclo[4.1.0]hept-3-en-1-yl)-2,2,2-trifluoroethanol], the half-maximal inhibitory concentration (IC50) came to 1110 µM at Recombinant Cat D, 0.0383 µM on human recombinant BACE2, 0.00737 µM in test [1] and 0.00165 µM at human recombinant BACE1.

With `C#CCOc1cnc2c(Nc3cnc(F)c([C@@]4(C)N=C(N)S[C@@]5([C@@H](O)C(F)(F)F)C[C@H]54)c3)ncnc2c1` [Example 666, (1S)-1-((1S,5S,6S)-3-amino-5-(2-fluoro-5-((7-(2-propyn-1-yloxy)pyrido[3,2-d]pyrimidin-4-yl)ammo)-3-pyridinyl)-5-methyl-2-thia-4-azabicyclo[4.1.0]hept-3-en-1-yl)-2,2,2-trifluoroethanol], the IC50 is 1690 µM at Recombinant Cat D, 0.177 µM at human recombinant BACE2, 0.00772 µM in test [1] and 0.00201 µM at human recombinant BACE1.

In the case of `C[C@]1(c2cc(Nc3ncnc4cc(OCc5ncco5)cnc34)cnc2F)N=C(N)S[C@@]2([C@H](O)C(F)(F)F)C[C@H]21` [Example 667, (1R)-1-((1S,5S,6S)-3-amino-5-(2-fluoro-5-((7-(1,3-oxazol-2-ylmethoxy)pyrido[3,2-d]pyrimidin-4-yl)amino)-3-pyridinyl)-5-methyl-2-thia-4-azabicyclo[4.1.0]hept-3-en-1-yl)-2,2,2-trifluoroethanol], the IC50 on Recombinant Cat D is 1160 µM; on human recombinant BACE2, 0.0599 µM; in test [1], 0.00362 µM; at human recombinant BACE1, 0.00262 µM.

As to `C[C@]1(c2cc(Nc3ncnc4cc(OCc5ncco5)cnc34)cnc2F)N=C(N)S[C@@]2([C@@H](O)C(F)(F)F)C[C@H]21` [Example 668, (1S)-1-((1S,5S,6S)-3-amino-5-(2-fluoro-5-((7-(1,3-oxazol-2-ylmethoxy)pyrido[3,2-d]pyrimidin-4-yl)amino)-3-pyridinyl)-5-methyl-2-thia-4-azabicyclo[4.1.0]hept-3-en-1-yl)-2,2,2-trifluoroethanol], the IC50 is 1970 µM on Recombinant Cat D, 0.233 µM at human recombinant BACE2, 0.00697 µM in test [1] and 0.0033 µM on human recombinant BACE1.

`C[C@]1(c2cc(Nc3nccc4cc(OCc5ncco5)cnc34)cnc2F)N=C(N)S[C@]2(CO)[C@H]1C2(F)F` [Example 669, ((1S,5S,6R)-3-amino-7,7-difluoro-5-(2-fluoro-5-((3-(1,3-oxazol-2-ylmethoxy)-1,7-naphthyridin-8-yl)amino)-3-pyridinyl)-5-methyl-2-thia-4-azabicyclo[4.1.0]hept-3-en-1-yl)methanol]: the IC50 was 1140 µM on Recombinant Cat D, 0.036 µM on human recombinant BACE2, 0.00593 µM in test [1] and 0.00119 µM on human recombinant BACE1.

On to `C#CCOc1cnc2c(Nc3cnc(F)c([C@@]4(C)N=C(N)S[C@@]5(CO)C[C@H]54)c3)ncnc2c1` [Example 670, ((1S,5S,6S)-3-amino-5-(2-fluoro-5-((7-(2-propyn-1-yloxy)pyrido[3,2-d]pyrimidin-4-yl)amino)-3-pyridinyl)-5-methyl-2-thia-4-azabicyclo[4.1.0]hept-3-en-1-yl)methanol], for which the IC50 turned out to be 730 µM on Recombinant Cat D, 0.17 µM on human recombinant BACE2, 0.000969 µM in test [1] and 0.0024 µM at human recombinant BACE1.

For `C#CCOc1cnc2c(Nc3ccc(F)c([C@@]4(C)N=C(N)S[C@@]5([C@H](O)C(F)(F)F)C[C@H]54)c3)nccc2n1` [Example 671, (1R)-1-((1S,5S,6S)-3-amino-5-(2-fluoro-5-((2-(2-propyn-1-yloxy)pyrido[3,4-b]pyrazin-5-yl)amino)phenyl)-5-methyl-2-thia-4-azabicyclo[4.1.0]hept-3-en-1-yl)-2,2,2,-trifluoroethanol], the IC50 is 1040 µM at Recombinant Cat D, 0.0236 µM at human recombinant BACE2, 0.00177 µM in test [1] and 0.000943 µM at human recombinant BACE1.

On to `C#CCOc1cnc2c(Nc3ccc(F)c([C@@]4(C)N=C(N)S[C@@]5([C@@H](O)C(F)(F)F)C[C@H]54)c3)nccc2n1` [Example 672, (1S)-1-((1S,5S,6S)-3-amino-5-(2-fluoro-5-((2-(2-propyn-1-yloxy)pyrido[3,4-b]pyrazin-5-yl)amino)phenyl)-5-methyl-2-thia-4-azabicyclo[4.1.0]hept-3-en-1-yl)-2,2,2-trifluoroethanol], for which the IC50 turned out to be 638 µM at Recombinant Cat D, 0.0685 µM on human recombinant BACE2, 0.007 µM in test [1] and 0.00142 µM on human recombinant BACE1.

With `C#CCOc1cnc(C(=O)Nc2ccc(F)c([C@@]3(C)N=C(N)S[C@@]4([C@H](O)C(F)(F)F)C[C@H]43)c2)cn1` [Example 673, N-(3-((1S,5S,6S)-3-amino-5-methyl-1-((1R)-2,2,2-trifluoro-1-hydroxyethyl)-2-thia-4-azabicyclo[4.1.0]hept-3-en-5-yl)-4-fluorophenyl)-5-(2-propyn-1-yloxy)-2-pyrazinecarboxamide], the half-maximal inhibitory concentration (IC50) came to 101 µM on Recombinant Cat D, 0.00602 µM on human recombinant BACE2, 0.000398 µM in test [1] and 0.000389 µM at human recombinant BACE1.

With `C#CCOc1cnc(C(=O)Nc2ccc(F)c([C@@]3(C)N=C(N)S[C@@]4([C@@H](O)C(F)(F)F)C[C@H]43)c2)cn1` [Example 674, N-(3-((1S,5S,6S)-3-amino-5-methyl-1-((1S)-2,2,2-trifluoro-1-hydroxyethyl)-2-thia-4-azabicyclo[4.1.0]hept-3-en-5-yl)-4-fluorophenyl)-5-(2-propyn-1-yloxy)-2-pyrazinecarboxamide], the IC50 at Recombinant Cat D came out at 149 µM; at human recombinant BACE2 it was 0.0133 µM; in test [1] it was 0.000776 µM; on human recombinant BACE1, 0.000368 µM.
